PubChem BioAssay (NCI)
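Grown in 96-well plates, cells were treated for 48 hours with each compound at five concentrations. Insufficient inhibition: endpoint recorded as highest concentration tested. GI50 is the concentration that inhibits growth by half. TGI marks complete inhibition of growth.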

Columns and labels:
Assay in all cases: NCI anticancer screen, dose series, 48 h
[1] = system: RPMI-8226 leukemia
[2] = system: CCRF-CEM leukemia
[3] = system: NCI/ADR-RES ovarian
[4] = system: U251 CNS
[5] = system: OVCAR-4 ovarian
[6] = system: LOX IMVI melanoma
[7] = system: MDA-MB-468 breast
[8] = system: OVCAR-3 ovarian
[9] = system: SK-MEL-2 melanoma
[10] = system: OVCAR-5 ovarian
[11] = system: IGROV1 ovarian
[12] = system: UACC-257 melanoma
[13] = system: SN12C renal
[14] = system: NCI-H226 lung
[15] = system: MCF7 breast
[16] = system: SW-620 colon
[17] = system: A498 renal
[18] = system: A549 NSCLC
[19] = system: OVCAR-8 ovarian
[20] = system: ACHN renal
[21] = system: SK-MEL-28 melanoma
[22] = system: M14 melanoma
[23] = system: SK-OV-3 ovarian
[24] = system: 786-0 renal
[25] = system: K-562 leukemia
[26] = system: NCI-H460 lung
[27] = system: RXF 393 renal
[28] = system: MDA-MB-435
[29] = system: BT-549 breast
[30] = system: HCC-2998 colon
[31] = system: MOLT-4 leukemia
[32] = system: SF-295 CNS
[33] = system: UACC-62 melanoma
[34] = system: SK-MEL-5 melanoma
[35] = system: PC-3 prostate
[36] = system: HL-60(TB) leukemia
[37] = system: TK-10 renal
[38] = system: EKVX NSCLC
[39] = system: HOP-92 NSCLC
[40] = system: SNB-75 CNS
[41] = system: HCT-15 colon
[42] = system: HS 578T breast
[43] = system: DU-145 prostate
[44] = system: T-47D breast
[45] = system: HCT-116 colon
[46] = system: SF-268 CNS
[47] = system: COLO 205 colon
[48] = system: MALME-3M melanoma
[49] = system: NCI-H522 lung
[50] = system: KM12 colon
[51] = system: HOP-62 NSCLC
[52] = system: SF-539 CNS
[53] = system: CAKI-1 renal
[54] = system: NCI-H23 lung
[55] = system: HT29 colon
[56] = system: SNB-19 CNS

Question: How did the GI50 [1] turn out when `CCCCCCCCCCCCCCCCCCCC(=O)NCCc1c[nH]c2ccc(OC(=O)NOCCOCCOCCOCCOCCOCCOCCOCCOCCOCCOCCOCCOCCOCCOCCOCCOCCOCCOCCOCCOCCOCCOC)cc12` was run?
Answer: 11.8 µM

Question: What about the TGI [1] of the same molecule?
Answer: 37.6 µM

Question: What about the GI50 [2] of the same molecule?
Answer: 13.5 µM

Question: What about the TGI [2] of the same molecule?
Answer: 33.8 µM

Question: And the GI50 [3]?
Answer: > 100 µM

Question: What about the TGI [3] of the same molecule?
Answer: > 100 µM

Question: What about the GI50 [4] of the same molecule?
Answer: 16.7 µM

Question: What about the TGI [4] of the same molecule?
Answer: 32.8 µM

Question: What about the GI50 [5] of the same molecule?
Answer: 18.7 µM

Question: What about the TGI [5] of the same molecule?
Answer: 87.7 µM

Question: What about the GI50 [6] of the same molecule?
Answer: 14.9 µM

Question: What about the TGI [6] of the same molecule?
Answer: 28.5 µM

Question: What about the GI50 [7] of the same molecule?
Answer: 11.9 µM

Question: What about the TGI [7] of the same molecule?
Answer: 26.3 µM

Question: What about the GI50 [8] of the same molecule?
Answer: 13.2 µM

Question: And the TGI [8]?
Answer: 53.3 µM

Question: What about the GI50 [9] of the same molecule?
Answer: 12.8 µM

Question: What about the TGI [9] of the same molecule?
Answer: 26 µM

Question: And the GI50 [10]?
Answer: 17.3 µM

Question: And the TGI [10]?
Answer: 41.9 µM

Question: What about the GI50 [11] of the same molecule?
Answer: 21.4 µM

Question: And the TGI [11]?
Answer: 57.1 µM

Question: What about the GI50 [12] of the same molecule?
Answer: 14.7 µM

Question: And the TGI [12]?
Answer: 30.2 µM

Question: And the GI50 [13]?
Answer: 15.1 µM

Question: What about the TGI [13] of the same molecule?
Answer: 39.5 µM

Question: What about the GI50 [14] of the same molecule?
Answer: 17.4 µM

Question: And the TGI [14]?
Answer: 38.5 µM

Question: What about the GI50 [15] of the same molecule?
Answer: 11 µM

Question: What about the TGI [15] of the same molecule?
Answer: 28.5 µM

Question: And the GI50 [16]?
Answer: 17.8 µM

Question: What about the TGI [16] of the same molecule?
Answer: 33.1 µM

Question: What about the GI50 [17] of the same molecule?
Answer: 25.9 µM

Question: And the TGI [17]?
Answer: 89.9 µM

Question: What about the GI50 [18] of the same molecule?
Answer: 17.7 µM

Question: And the TGI [18]?
Answer: 47.9 µM

Question: And the GI50 [19]?
Answer: 16.4 µM

Question: And the TGI [19]?
Answer: 46.2 µM

Question: And the GI50 [20]?
Answer: 45.7 µM

Question: And the TGI [20]?
Answer: > 100 µM

Question: And the GI50 [21]?
Answer: 15.9 µM

Question: And the TGI [21]?
Answer: 33.9 µM

Question: And the GI50 [22]?
Answer: 17.5 µM

Question: And the TGI [22]?
Answer: 35.2 µM

Question: And the GI50 [23]?
Answer: 19.1 µM

Question: And the TGI [23]?
Answer: 41.3 µM

Question: And the GI50 [24]?
Answer: 31 µM

Question: What about the TGI [24] of the same molecule?
Answer: 89 µM

Question: And the GI50 [25]?
Answer: 17.7 µM

Question: What about the TGI [25] of the same molecule?
Answer: 70.9 µM

Question: And the GI50 [26]?
Answer: 23.4 µM

Question: What about the TGI [26] of the same molecule?
Answer: 79.4 µM

Question: And the GI50 [27]?
Answer: 19.7 µM

Question: And the TGI [27]?
Answer: 53.6 µM

Question: What about the GI50 [28] of the same molecule?
Answer: 20.6 µM

Question: And the TGI [28]?
Answer: 48.6 µM

Question: And the GI50 [29]?
Answer: 14.1 µM

Question: And the TGI [29]?
Answer: 28.5 µM

Question: What about the GI50 [30] of the same molecule?
Answer: 15.6 µM

Question: What about the TGI [30] of the same molecule?
Answer: 30 µM

Question: What about the GI50 [31] of the same molecule?
Answer: 5.32 µM

Question: And the TGI [31]?
Answer: 24.9 µM

Question: And the GI50 [32]?
Answer: 17.8 µM

Question: What about the TGI [32] of the same molecule?
Answer: 36.7 µM

Question: What about the GI50 [33] of the same molecule?
Answer: 17 µM

Question: And the TGI [33]?
Answer: 31.4 µM

Question: And the GI50 [34]?
Answer: 13.5 µM

Question: And the TGI [34]?
Answer: 26.5 µM

Question: And the GI50 [35]?
Answer: 18.3 µM

Question: What about the TGI [35] of the same molecule?
Answer: 70.9 µM

Question: What about the GI50 [36] of the same molecule?
Answer: 14.4 µM

Question: And the TGI [36]?
Answer: 32.7 µM

Question: What about the GI50 [37] of the same molecule?
Answer: 19.5 µM

Question: And the TGI [37]?
Answer: 56.1 µM

Question: And the GI50 [38]?
Answer: 20.9 µM

Question: What about the TGI [38] of the same molecule?
Answer: 88.4 µM

Question: And the GI50 [39]?
Answer: 6.3 µM

Question: And the TGI [39]?
Answer: 44.7 µM

Question: What about the GI50 [40] of the same molecule?
Answer: 26.9 µM

Question: What about the TGI [40] of the same molecule?
Answer: 86 µM

Question: What about the GI50 [41] of the same molecule?
Answer: 54.4 µM

Question: And the TGI [41]?
Answer: > 100 µM

Question: What about the GI50 [42] of the same molecule?
Answer: 16.6 µM

Question: What about the TGI [42] of the same molecule?
Answer: 41.2 µM

Question: And the GI50 [43]?
Answer: 28 µM

Question: What about the TGI [43] of the same molecule?
Answer: > 100 µM

Question: What about the GI50 [44] of the same molecule?
Answer: 9.98 µM

Question: What about the TGI [44] of the same molecule?
Answer: 23.2 µM

Question: What about the GI50 [45] of the same molecule?
Answer: 17.4 µM

Question: And the TGI [45]?
Answer: 38.2 µM

Question: What about the GI50 [46] of the same molecule?
Answer: 14.8 µM

Question: What about the TGI [46] of the same molecule?
Answer: 52.7 µM

Question: What about the GI50 [47] of the same molecule?
Answer: 16.6 µM

Question: What about the TGI [47] of the same molecule?
Answer: 30.9 µM

Question: What about the GI50 [48] of the same molecule?
Answer: 14.4 µM

Question: What about the TGI [48] of the same molecule?
Answer: 29.3 µM

Question: What about the GI50 [49] of the same molecule?
Answer: 14.9 µM

Question: What about the TGI [49] of the same molecule?
Answer: 28.8 µM

Question: What about the GI50 [50] of the same molecule?
Answer: 19.8 µM

Question: And the TGI [50]?
Answer: 41.2 µM

Question: What about the GI50 [51] of the same molecule?
Answer: 17.8 µM

Question: And the TGI [51]?
Answer: 36.3 µM

Question: What about the GI50 [52] of the same molecule?
Answer: 17.9 µM

Question: What about the TGI [52] of the same molecule?
Answer: 40 µM

Question: What about the GI50 [53] of the same molecule?
Answer: > 100 µM

Question: What about the TGI [53] of the same molecule?
Answer: > 100 µM

Question: And the GI50 [54]?
Answer: 19.9 µM

Question: And the TGI [54]?
Answer: 46.2 µM

Question: And the GI50 [55]?
Answer: 15.6 µM

Question: What about the TGI [55] of the same molecule?
Answer: 30.8 µM

Question: And the GI50 [56]?
Answer: 20.3 µM

Question: And the TGI [56]?
Answer: 51.7 µM
